Laboratory results as given in patent US20230085307A1, “PYRIDAZINONE COMPOUND AND HERBICIDE” (NISSAN CHEMICAL CORPORATION, priority 2019, published 2023).

Legend:
Chinese sprangletop = test: Test Example 3: herbicidal effect by foliage application, Wagner pot (Table 18, symbol D); assay type: in vivo, chinese sprangletop (Leptochloa chinensis); conditions: 320 g/ha
Summary of the method: (§1)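 Plants were sown in alluvial soil held under 0.1–0.5 cm standing water and grown 14 days in a greenhouse at 25–30 °C. An emulsifiable formulation, water-diluted to the set dose, was then sprayed onto the foliage, and effects were scored three weeks later using previously defined criteria.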

velvetleaf [1] = test: Test Example 5: herbicidal effect by foliage application, plastic box (Table 20, symbol M); assay type: in vivo, velvetleaf (Abutilon theophrasti); conditions: foliage application, 320 g/ha, three weeks after application
Summary of the method: (§2)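 Foliar spray test: emulsion formulation diluted in water to a set application rate, sprayed onto 14-day-old plants raised in diluvial soil at 25° C to 30° C under glass. Both herbicidal effect and crop effect rated visually three weeks later.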

Italian ryegrass [2] = test: Test Example 4: herbicidal effect by soil treatment (Table 19, symbol K); assay type: in vivo, Italian ryegrass (Lolium multiflorum); conditions: amount of applied herbicide 320 g/ha
Summary of the method: (§3)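 Herbicidal effect was rated 3 weeks after treatment, using the scoring criteria of an earlier test. The compound, formulated as an emulsion and diluted in water to a set herbicide amount, had been sprayed uniformly on soil over freshly sown seeds. Growth took place in a greenhouse at 25° C. to 30° C.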

barnyard grass [3] = test: Test Example 4: herbicidal effect by soil treatment (Table 19, symbol H); assay type: in vivo, barnyard grass (Echinochloa crus-galli); conditions: amount of applied herbicide 320 g/ha
Summary of the method: as §3

persian speedwell [4] = test: Test Example 5: herbicidal effect by foliage application, plastic box (Table 20, symbol R); assay type: in vivo, Persian speedwell (Veronica persica); conditions: foliage application, 320 g/ha, three weeks after application
Summary of the method: as §2

velvetleaf [5] = test: Test Example 4: herbicidal effect by soil treatment (Table 19, symbol M); assay type: in vivo, velvetleaf (Abutilon theophrasti); conditions: amount of applied herbicide 320 g/ha
Summary of the method: as §3

windgrass [6] = test: Test Example 4: herbicidal effect by soil treatment (Table 19, symbol L); assay type: in vivo, windgrass (Apera spica-venti); conditions: amount of applied herbicide 320 g/ha
Summary of the method: as §3

Italian ryegrass [7] = test: Test Example 5: herbicidal effect by foliage application, plastic box (Table 20, symbol K); assay type: in vivo, Italian ryegrass (Lolium multiflorum); conditions: foliage application, 320 g/ha, three weeks after application
Summary of the method: as §2

blackgrass [8] = test: Test Example 4: herbicidal effect by soil treatment (Table 19, symbol J); assay type: in vivo, blackgrass (Alopecurus myosuroides); conditions: amount of applied herbicide 320 g/ha
Summary of the method: as §3

rice flat sedge = test: Test Example 3: herbicidal effect by foliage application, Wagner pot (Table 18, symbol E); assay type: in vivo, rice flat sedge (Cyperus iria); conditions: 320 g/ha
Summary of the method: as §1

Japanese bulrush = test: Test Example 1: herbicidal activity, application before weed generation under submerged conditions (Table 16, symbol B); assay type: in vivo, Japanese bulrush (Schoenoplectus juncoides); conditions: amount of applied herbicide 320 g/ha
Summary of the method: (§4)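 Emulsion formulation, water-diluted to set dose, was put onto the flooded surface (4 cm depth, alluvial soil) the same day weeds were sown and 2.5-leaf rice transplanted. After 3 weeks at 25-30 °C under glass, each species was rated 0 (≤5% kill) to 5 (≥90% kill).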

blackgrass [9] = test: Test Example 5: herbicidal effect by foliage application, plastic box (Table 20, symbol J); assay type: in vivo, blackgrass (Alopecurus myosuroides); conditions: foliage application, 320 g/ha, three weeks after application
Summary of the method: as §2

southern crabgrass [10] = test: Test Example 5: herbicidal effect by foliage application, plastic box (Table 20, symbol F); assay type: in vivo, southern crabgrass (Digitaria ciliaris); conditions: foliage application, 320 g/ha, three weeks after application
Summary of the method: as §2

persian speedwell [11] = test: Test Example 4: herbicidal effect by soil treatment (Table 19, symbol R); assay type: in vivo, Persian speedwell (Veronica persica); conditions: amount of applied herbicide 320 g/ha
Summary of the method: as §3

lambsquarters [12] = test: Test Example 5: herbicidal effect by foliage application, plastic box (Table 20, symbol O); assay type: in vivo, lambsquarters (Chenopodium album); conditions: foliage application, 320 g/ha, three weeks after application
Summary of the method: as §2

windgrass [13] = test: Test Example 5: herbicidal effect by foliage application, plastic box (Table 20, symbol L); assay type: in vivo, windgrass (Apera spica-venti); conditions: foliage application, 320 g/ha, three weeks after application
Summary of the method: as §2

redroot pigweed = test: Test Example 4: herbicidal effect by soil treatment (Table 19, symbol N); assay type: in vivo, redroot pigweed (Amaranthus retroflexus); conditions: amount of applied herbicide 320 g/ha
Summary of the method: as §3

oval-leafed pondweed = test: Test Example 1: herbicidal activity, application before weed generation under submerged conditions (Table 16, symbol C); assay type: in vivo, oval-leafed pondweed (Monochoria vaginalis); conditions: amount of applied herbicide 320 g/ha
Summary of the method: as §4

southern crabgrass [14] = test: Test Example 4: herbicidal effect by soil treatment (Table 19, symbol F); assay type: in vivo, southern crabgrass (Digitaria ciliaris); conditions: amount of applied herbicide 320 g/ha
Summary of the method: as §3

barnyard grass [15] = test: Test Example 3: herbicidal effect by foliage application, Wagner pot (Table 18, symbol H); assay type: in vivo, barnyard grass (Echinochloa crus-galli); conditions: 320 g/ha
Summary of the method: as §1

lambsquarters [16] = test: Test Example 4: herbicidal effect by soil treatment (Table 19, symbol O); assay type: in vivo, lambsquarters (Chenopodium album); conditions: amount of applied herbicide 320 g/ha
Summary of the method: as §3

wild oat [17] = test: Test Example 5: herbicidal effect by foliage application, plastic box (Table 20, symbol I); assay type: in vivo, wild oat (Avena fatua); conditions: foliage application, 320 g/ha, three weeks after application
Summary of the method: as §2

green foxtail [18] = test: Test Example 4: herbicidal effect by soil treatment (Table 19, symbol G); assay type: in vivo, green foxtail (Setaria viridis); conditions: amount of applied herbicide 320 g/ha
Summary of the method: as §3

chickweed = test: Test Example 4: herbicidal effect by soil treatment (Table 19, symbol P); assay type: in vivo, common chickweed (Stellaria media); conditions: amount of applied herbicide 320 g/ha
Summary of the method: as §3

barnyard grass [19] = test: Test Example 5: herbicidal effect by foliage application, plastic box (Table 20, symbol H); assay type: in vivo, barnyard grass (Echinochloa crus-galli); conditions: foliage application, 320 g/ha, three weeks after application
Summary of the method: as §2

wild oat [20] = test: Test Example 4: herbicidal effect by soil treatment (Table 19, symbol I); assay type: in vivo, wild oat (Avena fatua); conditions: amount of applied herbicide 320 g/ha
Summary of the method: as §3

green foxtail [21] = test: Test Example 5: herbicidal effect by foliage application, plastic box (Table 20, symbol G); assay type: in vivo, green foxtail (Setaria viridis); conditions: foliage application, 320 g/ha, three weeks after application
Summary of the method: as §2

late watergrass = test: Test Example 1: herbicidal activity, application before weed generation under submerged conditions (Table 16, symbol A); assay type: in vivo, late watergrass (Echinochloa oryzicola); conditions: amount of applied herbicide 320 g/ha
Summary of the method: as §4

CCOc1cc(F)ccc1-c1sc2cc(Cl)c(Cl)cc2c1-c1c(O)c(C)nn(C)c1=O [5-053]
herbicidal effect on Chinese sprangletop (D) (Chinese sprangletop): 3 (Herbicidal rate of 40% or more and less than 70%) | herbicidal effect on velvetleaf (M) (velvetleaf [1]): 5 (Herbicidal rate of 90% or more (almost completely withered)) | K: Italian ryegrass, herbicidal effect grade (Italian ryegrass [2]): 0 (Herbicidal rate of 5% or less (almost no effect)) | H: barnyard grass, herbicidal effect grade (barnyard grass [3]): 0 (Herbicidal rate of 5% or less (almost no effect)) | herbicidal effect on persian speedwell (R) (persian speedwell [4]): 5 (Herbicidal rate of 90% or more (almost completely withered)) | M: velvetleaf, herbicidal effect grade (velvetleaf [5]): 0 (Herbicidal rate of 5% or less (almost no effect)) | L: windgrass, herbicidal effect grade (windgrass [6]): 0 (Herbicidal rate of 5% or less (almost no effect)) | herbicidal effect on Italian ryegrass (K) (Italian ryegrass [7]): 0 (Herbicidal rate of 5% or less (almost no effect)) | J: blackgrass, herbicidal effect grade (blackgrass [8]): 0 (Herbicidal rate of 5% or less (almost no effect)) | herbicidal effect on rice flat sedge (E) (rice flat sedge): 5 (Herbicidal rate of 90% or more (almost completely withered)) | Herbicidal effect, B: Japanese bulrush (Japanese bulrush): 3 (Herbicidal rate of 40% or more and less than 70%) | herbicidal effect on blackgrass (J) (blackgrass [9]): 0 (Herbicidal rate of 5% or less (almost no effect)) | herbicidal effect on southern crabgrass (F) (southern crabgrass [10]): 3 (Herbicidal rate of 40% or more and less than 70%) | R: persian speedwell, herbicidal effect grade (persian speedwell [11]): 1 (Herbicidal rate of 5% or more and less than 20%) | herbicidal effect on lambsquarters (O) (lambsquarters [12]): 3 (Herbicidal rate of 40% or more and less than 70%) | herbicidal effect on windgrass (L) (windgrass [13]): 3 (Herbicidal rate of 40% or more and less than 70%) | N: redroot pigweed, herbicidal effect grade (redroot pigweed): 3 (Herbicidal rate of 40% or more and less than 70%) | Herbicidal effect, C: oval-leafed pondweed (oval-leafed pondweed): 0 (Herbicidal rate of 5% or less (almost no effect)) | F: southern crabgrass, herbicidal effect grade (southern crabgrass [14]): 0 (Herbicidal rate of 5% or less (almost no effect)) | herbicidal effect on barnyard grass (H) (barnyard grass [15]): 3 (Herbicidal rate of 40% or more and less than 70%) | O: lambsquarters, herbicidal effect grade (lambsquarters [16]): 0 (Herbicidal rate of 5% or less (almost no effect)) | herbicidal effect on wild oat (I) (wild oat [17]): 0 (Herbicidal rate of 5% or less (almost no effect)) | G: green foxtail, herbicidal effect grade (green foxtail [18]): 0 (Herbicidal rate of 5% or less (almost no effect)) | P: chickweed, herbicidal effect grade (chickweed): 0 (Herbicidal rate of 5% or less (almost no effect)) | herbicidal effect on barnyard grass (H) (barnyard grass [19]): 1 (Herbicidal rate of 5% or more and less than 20%) | I: wild oat, herbicidal effect grade (wild oat [20]): 0 (Herbicidal rate of 5% or less (almost no effect)) | herbicidal effect on green foxtail (G) (green foxtail [21]): 4 (Herbicidal rate of 70% or more and less than 90%) | Herbicidal effect, A: late watergrass (late watergrass): 0 (Herbicidal rate of 5% or less (almost no effect))

CCCC(=O)Oc1c(C)nn(C)c(=O)c1-c1c(-c2ccc(F)cc2OC)sc2cc(Cl)c(Cl)cc12 [5-052]
herbicidal effect on Chinese sprangletop (D) (Chinese sprangletop): 3 (Herbicidal rate of 40% or more and less than 70%) | herbicidal effect on velvetleaf (M) (velvetleaf [1]): 4 (Herbicidal rate of 70% or more and less than 90%) | K: Italian ryegrass, herbicidal effect grade (Italian ryegrass [2]): 0 (Herbicidal rate of 5% or less (almost no effect)) | H: barnyard grass, herbicidal effect grade (barnyard grass [3]): 0 (Herbicidal rate of 5% or less (almost no effect)) | herbicidal effect on persian speedwell (R) (persian speedwell [4]): 4 (Herbicidal rate of 70% or more and less than 90%) | M: velvetleaf, herbicidal effect grade (velvetleaf [5]): 0 (Herbicidal rate of 5% or less (almost no effect)) | L: windgrass, herbicidal effect grade (windgrass [6]): 0 (Herbicidal rate of 5% or less (almost no effect)) | herbicidal effect on Italian ryegrass (K) (Italian ryegrass [7]): 0 (Herbicidal rate of 5% or less (almost no effect)) | J: blackgrass, herbicidal effect grade (blackgrass [8]): 0 (Herbicidal rate of 5% or less (almost no effect)) | herbicidal effect on rice flat sedge (E) (rice flat sedge): 5 (Herbicidal rate of 90% or more (almost completely withered)) | Herbicidal effect, B: Japanese bulrush (Japanese bulrush): 3 (Herbicidal rate of 40% or more and less than 70%) | herbicidal effect on blackgrass (J) (blackgrass [9]): 4 (Herbicidal rate of 70% or more and less than 90%) | herbicidal effect on southern crabgrass (F) (southern crabgrass [10]): 0 (Herbicidal rate of 5% or less (almost no effect)) | R: persian speedwell, herbicidal effect grade (persian speedwell [11]): 0 (Herbicidal rate of 5% or less (almost no effect)) | herbicidal effect on lambsquarters (O) (lambsquarters [12]): 5 (Herbicidal rate of 90% or more (almost completely withered)) | herbicidal effect on windgrass (L) (windgrass [13]): 4 (Herbicidal rate of 70% or more and less than 90%) | N: redroot pigweed, herbicidal effect grade (redroot pigweed): 2 (Herbicidal rate of 20% or more and less than 40%) | Herbicidal effect, C: oval-leafed pondweed (oval-leafed pondweed): 0 (Herbicidal rate of 5% or less (almost no effect)) | F: southern crabgrass, herbicidal effect grade (southern crabgrass [14]): 0 (Herbicidal rate of 5% or less (almost no effect)) | herbicidal effect on barnyard grass (H) (barnyard grass [15]): 5 (Herbicidal rate of 90% or more (almost completely withered)) | O: lambsquarters, herbicidal effect grade (lambsquarters [16]): 3 (Herbicidal rate of 40% or more and less than 70%) | herbicidal effect on wild oat (I) (wild oat [17]): 0 (Herbicidal rate of 5% or less (almost no effect)) | G: green foxtail, herbicidal effect grade (green foxtail [18]): 0 (Herbicidal rate of 5% or less (almost no effect)) | P: chickweed, herbicidal effect grade (chickweed): 3 (Herbicidal rate of 40% or more and less than 70%) | herbicidal effect on barnyard grass (H) (barnyard grass [19]): 4 (Herbicidal rate of 70% or more and less than 90%) | I: wild oat, herbicidal effect grade (wild oat [20]): 0 (Herbicidal rate of 5% or less (almost no effect)) | herbicidal effect on green foxtail (G) (green foxtail [21]): 3 (Herbicidal rate of 40% or more and less than 70%) | Herbicidal effect, A: late watergrass (late watergrass): 0 (Herbicidal rate of 5% or less (almost no effect))
